Reference: patent US8853227B2, “Methotrexate adjuvants to reduce toxicity and methods for using the same” (Tosk, Incorporated, priority 2008, dated 2014)

Legend:
CCRF-CEM cells = assay: Cell Culture Study I (MTX cytotoxicity, alamarBlue); type: cell-based, human; settings: 72 hours
Protocol: In this study, CCRF-CEM cells purchased from ATCC were cultured and then 12 tubes containing approximately 10^6 cells each treated for 72 hours with media (Group1), MTX 0.03 μM (Group2), MTX+Leucovorin 1 μM (Group3), MTX+Leucovorin 10 μM (Group4), MTX+Leucovorin 100 μM (GroupS), MTX+TK-112690 1 μM (Group6), MTX+TK-112690 10 μM (Group7) and MTX+TK-112690 100 μM (Group8). […] Viability was measured as percent reduction of alamarBlue absorbance.
The tumor cell line CCR-CEM (human T-cell acute lymphoblastic leukemia) is obtained from American Type Culture Collection (CRL-1593.2) and cultured in accordance with the product information sheet with the following exceptions: 55.3 cm^2 Petri dishes are used instead of 75 cm^2 culture flasks, and 1% penicillin-streptomycin solution (HyClone SV30010) and 1% GlutaMAX™ (Gibco 35050) are added to the culture medium.
TK-112690, the representative 2,2′-anhydropyrimidine test article, is dissolved in 40% DMSO, sterile filtered then diluted with sterile distilled water to obtain initial working solutions of 10, 100 and 1000 μM. In testing, a 100 fold dilution is made in culture media to give final assay concentrations of 0.1, 1.0 and 10.0 μM. MTX (SAFC Biosciences M8407) is dissolved in sterile distilled water and 5 N NaOH then sterile filtered. The final pH of the stock solution is 7.8 and working solutions are made with sterile distilled water for final assay concentrations of 30, 3.0, 0.3, 0.03 and 0.003 μM. Leucovorin (Sigma F-7878) is dissolved in sterile distilled water, sterile filtered and diluted with sterile distilled water for final assay concentrations of 0.1, 1.0 and 10.0 μM.
Aliquots of 100 μL of cell suspension are plated in 96 well microtiter plates (Corning costar 3595) and placed in an atmosphere of 5% CO2 at 37° C. (Fisher Scientific Isotemp 3500 CO2 Incubator). After 24 hours, 100 μL of growth medium [RPMI-1640 w/L-glutamine (Cambrex 12-702Q) fortified with sodium pyruvate (HyClone SH30239.01), fetal bovine serum (SAFC Biosciences 12107C) and HEPES buffer (Gibco 15630)] and 2 μL of test solution or vehicle are added respectively per well and the plates incubated for an additional 72 hour incubation. MTX is evaluated at concentrations of 0.003, 0.03, 0.30 and 3.0 μM alone or in combination with either a 2,2′-anhydropyrimidine test article or Leucovorin at concentrations of 0.1, 1.0, 10.0 μM. At the end of incubation, the efficacy of anti-cell proliferation is determined by optical absorbance at A=570 and 600 nm [Spectramax 250 (Molecular Devices)] in accordance with the standard alamarBlue™ (Biosource) protocol.
Group 1 is the cell control (media treated). Group 2 corresponds to cells treated with 0.03 μM MTX. Group 3 are cells treated with 1.0 μM Leucovorin. Group 4 are cells treated with 0.1 μM Leucovorin. […]

Drosophila melanogaster = assay: Fly Study I (protection from MTX-induced lethality); type: in vivo; settings: for Flies Alive (Number): Fly Study I method, test compound + MTX (MTX Alone: no adjuvant), Table 3
Protocol: In this study, Drosophila melanogaster eggs (50 eggs per vial) were treated with either 0.005 mg TK-112690+0.4 mg MTX (Group 1), 0.01 mg TK-112690+0.4 mg MTX (Group 2), 0.04 mg TK-112690+0.4 mg MTX (Group 3), 0.1 mg TK-112690+0.4 mg MTX (Group 4), 0.4 mg MTX alone (Group 5) or saline blank (Group 6). Two vials of eggs for each dose group were evaluated for viability (viable flies plus pupae).
The efficacy of cancer chemotherapy can be improved if agents are available to reduce the adverse events associated with treatment with cytotoxic agents. To this end, Drosophila melanogaster (commonly know as the fruit fly) is an ideal organism to screen chemical compounds for such side-effect-reducing agents. This study is aimed at finding a dose of a 2,2′-anhydropyrimidine test article that protects against MTX-induced lethality in insects.
Increasing amounts of a 2,2′-anhydropyrimidine test article (typically 0.03 to 0.1 mg) are mixed in an aqueous solution with 0.3 (or 0.4) mg MTX. Four milliliters (mL) of a 2,2′-anhydropyrimidine test article+MTX solutions are added to an appropriate amount of instant fly medium. Fruit fly eggs are added to a 2,2′-anhydropyrimidine test article+MTX treated medium and incubated for up to 31 days. After the 31 day incubation, each assay is scored by the number of mature fly and pupae per vial.
The assays are set up in clear sterile polystyrene narrow diameter vials from Applied Scientific (Hampton, N.H.). Vials are stored in trays and incubated in a darkened 25° C. incubator.
Reagents and materials used are: 50 mg/mL MTX in H2O (pH 8), 20 mg/mL of the 2,2′-anhydropyrimidine test article in H2O, water, sterile polystyrene narrow diameter vials from Applied Scientific, Instant Drosophila Food Medium, Oregon-R Drosophila melanogaster, 25° C. incubator, and 15 mL polystyrene conical tubes
Each assay is performed in a separate fly vial. Increasing amounts of a 2,2′-anhydropyrimidine (0.005 to 1.0 mg) are tested for MTX side-effect-reduction on fly eggs. Amounts of the 2,2′-anhydropyrimidine test article are drawn from a 20 mg/mL stock solution dissolved in water. Nine mL of the 2,2′-anhydropyrimidine+0.3 (or 0.4) mg MTX solutions are pre-mixed with water in a 15 mL conical tube. Duplicate assays receive 4 mL of the 2,2′-anhydropyrimidine test article+0.3 (or 0.4) mg MTX solutions. Pre-measured amounts of instant drosophila medium are added to each assay to achieve optimal hydration level. Controls are (1) 4 mL water alone and (2) 0.3 (or 0.4) mg MTX alone. Precisely 50 fly eggs aged for ˜18 hours are added to each assay. Assays are capped with a fitted plug and incubated for 30 days in a darkened 25° C. incubator. Assays are scored by the number of dead pupae or adult flies per vial.

Structure (SMILES) | Flies Alive (Number) (Drosophila melanogaster) | further results
Nc1nc2c(c(=O)[nH]1)N(C=O)C(CNc1ccc(C(=O)N[C@@H](CCC(=O)O)C(=O)O)cc1)CN2 (some centres unmarked) [Leucovorin, reference compound] |  | cell viability, Leucovorin+MTX versus MTX alone (protection by positive control) (CCRF-CEM cells; 0.03 μM MTX + Leucovorin, p<0.000 and 0.002): statistically different; cell viability, test article alone versus control (CCRF-CEM cells; without MTX): not statistically different than control
O=c1nc2n(cc1NCc1ccccc1)[C@@H]1O[C@H](CO)[C@@H](O)[C@@H]1O2 [TK-000006] | 0 | 
CCOCc1cn2c(nc1=O)O[C@H]1[C@H](O)[C@@H](CO)O[C@H]12 [TK-000007] | 3 | 
O=c1nc2n(cc1COCc1ccccc1)[C@@H]1O[C@H](CO)[C@@H](O)[C@@H]1O2 [TK-000008] | 0 | 
COCc1cn2c(nc1=O)O[C@H]1[C@H](O)[C@@H](CO)O[C@H]12 [TK-000009] | 5 | activity in the Fly model for protection against MTX-induced lethality (Drosophila melanogaster): active
CC(=N)OCc1cn2c(nc1=O)O[C@H]1[C@H](O)[C@@H](CO)O[C@H]12 [TK-000010] | 0 | 
Cc1cn2c(nc1=O)O[C@H]1[C@H](O)[C@@H](CN=[N+]=[N-])O[C@H]12 [TK-000011] | 0 | 
Cc1cn2c(nc1=O)O[C@H]1C(O)[C@@H](CF)O[C@H]12 (some centres unmarked) [TK-000015] | 0 | 
Cc1ccc(SCc2cn3c(nc2=O)O[C@H]2C(O)[C@@H](CO)O[C@H]23)cc1 (some centres unmarked) [TK-000016] | 0 | 
